Tests used:
[1] = tested on: HUVECs cells; assay: Tube formation assay in VEGF-165-induced HUVECs; format: cell-based, human
Method: 48-well plates were coated with 200 μl Matrigel and maintained at 37° C. for 1 hour, and HUVECs cells were stained with Calcein-AM for 15 minutes at 37° C.
The stained HUVECs cells were dispensed into 2×10^4 cells in each well of a Matrigel-coated plate and treated with recombinant human VEGF-165 into each well to induce the tube formation of the cells.
Thereafter, collagen type I (collagen type I alpha 1, partial [Sus scrofa] GenBank: AAR03833.1) and 34-mer pigment epithelium derived factor peptide (DPFFKVPVNKLAAAVSNFGYDLYRVRSSTSPTTN: SEQ ID NO: 1) were treated separately, respectively, or mixed together and treated and incubated for 4 hours at 37° C., and the degree of tube formation of each group was confirmed.
The degree of tube formation was confirmed by taking pictures with a Micromanipulator (Olympus) and compared by measuring the length of the tube.

[2] = tested on: choroidal neovascularization (CNV); assay: Laser-induced choroidal neovascularization model, intravitreal injection immediately after laser irradiation; format: in vivo, C57BL/6 mice; settings: intraocular injection for 5 days, day 14 after laser (FIG. 2A, 2B)
Method: 5-8 week old C57BL/6 mice were purchased from Orient and used.
The pupils of each mouse were dilated using 5 mg/mL Tropicamide (santen pharmaceutical co. ltd, Kita-ku, Osaka, Japan) eye drops and 100 mg/kg ketamine (Huons, SEONGNAM-SI, GYEONGGI-DO, Korea) and 10 mg/kg xylazine (BAYER, Leverkusen, Germany) were anesthetized by intraperitoneal injection.
After anesthesia, the mice were fixed to the mouse holder, and a laser beam of 150 to 210 mW intensity was irradiated for 0.1 second using a slit lamp microscope laser system to prepare four lesions of 50-100 μm size in the retinas of mice at 3, 6, 9 and 12 o'clock. At this time, droplets should be formed by the laser beam, which are important for breaking Bruch's membranes to form neovascularization (CNV). […]
The stained eyeball was separated and placed in 10% formalin to fix for 30 minutes, and then muscles, corneas, irises, lenses and vitreous bodies around the eyeball were carefully removed not to hurt the eye's retina fixed on the microscope and four sections were cut at 3, 6, 9, and 12 o'clock, covered with coverslip, the lesion was photographed using a fluorescence microscope, and the size was measured to compare with the control group.

[3] = tested on: choroidal neovascularization (CNV); assay: Choroidal neovascularization model with complete neovascularization, treatment on day 7 after laser irradiation; format: in vivo, C57BL/6 mice; settings: 0.1% collagen type I, 25 pmol peptide or their mixture, administered once on day 7 after laser irradiation (FIG. 7B, 7C)
[4] = tested on: HUVECs tube formation; assay: Stability confirmation by tube formation assay after storage; format: physicochemical, human; settings: stored for 6 weeks at 4° C. and room temperature (FIG. 11)
Method: In order to confirm the stability of the mixture of PEDF 34-mer peptide and collagen, the mixture of PEDF 34-mer peptide and collagen and the PEDF 34-mer peptide were stored for 6 weeks at 4° C. and room temperature (RT), and stability of PEDF 34-mer peptide and PEDF 34-mer peptide and collagen mixture, which were prepared immediately before the experiment, were compared.
Tube formation assay for each mixture was performed to confirm angiogenesis inhibitory ability.

## DPFFKVPVNKLAAAVSNFGYDLYRVRSSTSPTTN (DPFFKVPVNKLAAAVSNFGYDLYRVRSSTSPTTN; pigemented epithelium derived factor peptide)
[1]; carrier comparison: 0.1% collagen type I, hyaluronic acid or gelatin, alone or with peptide 0.02-500 pmol/ml (FIG. 4)
  inhibitory effect on tube formation: same as that of the 34-mer pigment epithelium derived factor peptide and collagen type I mixture administration group
[1]; peptide alone 0.2 pg/ml, VEGF-165-induced HUVECs, 4 hours (FIG. 1A, 1B)
  inhibitory effect on tube formation: greatest inhibitory effect on tube formation
[1]; peptide alone at higher concentrations (up to 5 pmol/ml), 4 hours (FIG. 1A, 1B)
  tube formation: the tube formation increased again
[1]; peptide at high concentration, alone or mixed with 0.05 or 0.1% collagen type I (FIG. 3)
  tube formation: the tube formation increased rapidly
[2]; peptide 10 pmol
  size of neovascularization (CNV): increase neovascularization (CNV) again
[2]; peptide 0.01, 0.5 and 0.1 pmol
  size of neovascularization (CNV): significantly reduced
[3]
  angiogenesis inhibitory effect: almost no angiogenesis inhibitory effect
[4]
  stability: tube formation inhibition after storage compared with preparation made immediately before the experiment: did not inhibit the tube formation
